Assay results as given in patent US4175125A, “Method for treating methicillin resistant staphylococcus aureus” (Eli Lilly and Company, priority 1978, dated 1979).
≈ marks a conversion by molar mass, not a printed value. Values belong to the molecule of their own block, whether it stands above or below them.

Tests used:
[1] = system: Staphylococcus aureus cultures; assay: Agar dilution susceptibility test, phenylthioacetyl cephalosporins vs methicillin resistant S. aureus (Example 9); format: cell-based; conditions: for MIC: Staphylococcus aureus, read-out: MIC
Excerpt: This example compares the antibiotic activities of three known compounds, methicillin, cephalothin, and cephaloridine, with three compounds from the above examples, in terms of minimum inhibitory concentration (MIC) values in microgram/milliliter units against various isolates of Staphylococcus aureus cultures. The culture numbers and the procedures used to obtain the reported data are disclosed by W. E. Wick and D. A. Preston in their article "Heterogeneous Methicillin-Resistant Staphylococcus Aureus" which appeared in Progress in Antimicrobial And Anticancer Chemotherapy, Proceedings of the 6th International Congress of Chemotherapy, Volume, 1, U. of Tokyo Press, Tokyo, (1970). In these agardilution susceptibility tests, the inocula were diluted to 10^3 bacteria per spot. Cultures 3055 (benzylpenicillin sensitive) and H232 (benzylpenicillin-resistant) are controls. The remaining cultures are methicillin-resistant, and, except for 3136, are clinical isolates. Culture 3136 is a 4th transfer laboratory selected mutant.

[2] = system: Staphylococcus aureus cultures; assay: Broth dilution MIC in trypticase soy broth, low and high NaCl (Example 10); format: cell-based; conditions: Staphylococcus aureus, TSB, read-out: MIC
Protocol: This example compares the antibiotic activities of methicillin, cephalothin and cephaloridine with the compounds of Examples 1, 2 and 3, in broth dilution tests. The MIC values, in μg/ml., are against the same Staphylococcus aureus cultures described in Example 9, except that in this example the cultures were grown in trypticase soy broth (TSB). Growing the cultures in two broth cultures, one having a low (0.5 percent) sodium chloride content and one having a high (5.0 percent) sodium chloride content is said to assist in identifying the methicillin-resistant cultures from those which are not methicillin-resistant. […] See Chabbert, Y. A., 1967 Postgrad. Med. J., 43 (suppl); 40-46. One expects that similar changes in MIC values for this type of culture to other β-lactam antibiotics, e.g., various penicillins and cephalosporins, to have similar implications. […] That is, methicillin-resistant S.aureus cultures are susceptible to the cephalosporin antibiotics used in this invention.

[3] = culture 3055 (control, benzylpenicillin sensitive), table part marked b
[4] = culture 3055 (control, benzylpenicillin sensitive), table part marked c
[5] = culture 3130, table part marked b
[6] = culture 3130, table part marked c
[7] = culture 3131, table part marked b
[8] = culture 3131, table part marked c
[9] = culture 3132, table part marked b
[10] = culture 3132, table part marked c
[11] = culture 3133, table part marked b
[12] = culture 3133, table part marked c
[13] = culture 3134, table part marked b
[14] = culture 3134, table part marked c
[15] = culture 3135, table part marked b
[16] = culture 3135, table part marked c
[17] = culture 3136, table part marked b
[18] = culture 3136, table part marked c
[19] = culture 3137, table part marked b
[20] = culture 3137, table part marked c
[21] = culture 3138, table part marked b
[22] = culture 3138, table part marked c
[23] = culture 3139, table part marked b
[24] = culture 3139, table part marked c
[25] = culture (Seattle) 966, table part marked b
[26] = culture (Seattle) 966, table part marked c
[27] = culture H232 (control, benzylpenicillin-resistant), table part marked b
[28] = culture H232 (control, benzylpenicillin-resistant), table part marked c
[29] = culture Kavarmark 1138501, table part marked b
[30] = culture Kavarmark 1138501, table part marked c
[31] = culture S61, table part marked b
[32] = culture S61, table part marked c
[33] = culture 3132 (first column so headed), table part marked b
[34] = culture 3132 (first column so headed), table part marked c
[35] = culture 3132 (second column so headed), table part marked b
[36] = culture 3132 (second column so headed), table part marked c
[37] = culture Kavarnick 1138501, table part marked b
[38] = culture Kavarnick 1138501, table part marked c

Compound: O=C(Cc1cccs1)N[C@@H]1C(=O)N2C(C(=O)[O-])=C(C[n+]3ccccc3)CS[C@H]12 [Cephaloridine, cephaloridine, reference compound]
- MIC [1, 3]: < 0.06 µg/mL
- MIC [1, 4]: 0.25 µg/mL (≈ 0.602 µM)
- MIC [1, 5]: 4 µg/mL (≈ 9.63 µM)
- MIC [1, 6]: 8 µg/mL (≈ 19.3 µM)
- MIC [1, 7]: 1 µg/mL (≈ 2.41 µM)
- MIC [1, 8]: 16 µg/mL (≈ 38.5 µM)
- MIC [1, 9]: 2 µg/mL (≈ 4.81 µM)
- MIC [1, 10]: 2 µg/mL (≈ 4.81 µM)
- MIC [1, 11]: 4 µg/mL (≈ 9.63 µM)
- MIC [1, 12]: 16 µg/mL (≈ 38.5 µM)
- MIC [1, 13]: 8 µg/mL (≈ 19.3 µM)
- MIC [1, 14]: 16 µg/mL (≈ 38.5 µM)
- MIC [1, 15]: 1 µg/mL (≈ 2.41 µM)
- MIC [1, 16]: 8 µg/mL (≈ 19.3 µM)
- MIC [1, 17]: 0.25 µg/mL (≈ 0.602 µM)
- MIC [1, 18]: 16 µg/mL (≈ 38.5 µM)
- MIC [1, 19]: 8 µg/mL (≈ 19.3 µM)
- MIC [1, 20]: 32 µg/mL (≈ 77 µM)
- MIC [1, 21]: 8 µg/mL (≈ 19.3 µM)
- MIC [1, 22]: 16 µg/mL (≈ 38.5 µM)
- MIC [1, 23]: 1 µg/mL (≈ 2.41 µM)
- MIC [1, 24]: 4 µg/mL (≈ 9.63 µM)
- MIC [1, 25]: 0.25 µg/mL (≈ 0.602 µM)
- MIC [1, 26]: 0.25 µg/mL (≈ 0.602 µM)
- MIC [1, 27]: < 0.06 µg/mL
- MIC [1, 28]: < 0.06 µg/mL
- MIC [1, 29]: 1 µg/mL (≈ 2.41 µM)
- MIC [1, 30]: 4 µg/mL (≈ 9.63 µM)
- MIC [1, 31]: 4 µg/mL (≈ 9.63 µM)
- MIC [1, 32]: 16 µg/mL (≈ 38.5 µM)
- MIC [2, 7]: 2 µg/mL (≈ 4.81 µM)
- MIC [2, 8]: 16 µg/mL (≈ 38.5 µM)
- MIC [2, 33]: 2 µg/mL (≈ 4.81 µM)
- MIC [2, 34]: 16 µg/mL (≈ 38.5 µM)
- MIC [2, 35]: 1 µg/mL (≈ 2.41 µM)
- MIC [2, 36]: 16 µg/mL (≈ 38.5 µM)
- MIC [2, 15]: 2 µg/mL (≈ 4.81 µM)
- MIC [2, 16]: 16 µg/mL (≈ 38.5 µM)
- MIC [2, 17]: < 0.5 µg/mL
- MIC [2, 18]: 16 µg/mL (≈ 38.5 µM)
- MIC [2, 19]: 8 µg/mL (≈ 19.3 µM)
- MIC [2, 20]: 32 µg/mL (≈ 77 µM)
- MIC [2, 21]: 4 µg/mL (≈ 9.63 µM)
- MIC [2, 22]: 16 µg/mL (≈ 38.5 µM)
- MIC [2, 23]: 1 µg/mL (≈ 2.41 µM)
- MIC [2, 24]: 8 µg/mL (≈ 19.3 µM)
- MIC [2, 25]: 4 µg/mL (≈ 9.63 µM)
- MIC [2, 26]: 8 µg/mL (≈ 19.3 µM)
- MIC [2, 37]: 2 µg/mL (≈ 4.81 µM)
- MIC [2, 38]: 16 µg/mL (≈ 38.5 µM)
- MIC [2, 31]: 4 µg/mL (≈ 9.63 µM)
- MIC [2, 32]: 64 µg/mL (≈ 154 µM)
- MIC ([2]; culture S, table part marked b): 4 µg/mL (≈ 9.63 µM)
- MIC ([2]; culture S, table part marked c): 16 µg/mL (≈ 38.5 µM)

- MIC [1, 3]: < 0.06 µg/mL
- MIC [1, 4]: < 0.06 µg/mL
- MIC [1, 5]: 0.5 µg/mL (≈ 1.02 µM)
- MIC [1, 6]: 2 µg/mL (≈ 4.07 µM)
- MIC [1, 7]: 0.5 µg/mL (≈ 1.02 µM)
- MIC [1, 8]: 1 µg/mL (≈ 2.04 µM)
- MIC [1, 9]: 0.5 µg/mL (≈ 1.02 µM)
- MIC [1, 10]: 0.5 µg/mL (≈ 1.02 µM)
- MIC [1, 11]: 1 µg/mL (≈ 2.04 µM)
- MIC [1, 12]: 2 µg/mL (≈ 4.07 µM)
- MIC [1, 13]: 1 µg/mL (≈ 2.04 µM)
- MIC [1, 14]: 2 µg/mL (≈ 4.07 µM)
- MIC [1, 15]: 0.5 µg/mL (≈ 1.02 µM)
- MIC [1, 16]: 1 µg/mL (≈ 2.04 µM)
- MIC [1, 17]: 0.5 µg/mL (≈ 1.02 µM)
- MIC [1, 18]: 1 µg/mL (≈ 2.04 µM)
- MIC [1, 19]: 2 µg/mL (≈ 4.07 µM)
- MIC [1, 20]: 4 µg/mL (≈ 8.14 µM)
- MIC [1, 21]: 1 µg/mL (≈ 2.04 µM)
- MIC [1, 22]: 1 µg/mL (≈ 2.04 µM)
- MIC [1, 23]: 1 µg/mL (≈ 2.04 µM)
- MIC [1, 24]: 0.5 µg/mL (≈ 1.02 µM)
- MIC [1, 25]: 0.5 µg/mL (≈ 1.02 µM)
- MIC [1, 26]: 0.25 µg/mL (≈ 0.509 µM)
- MIC [1, 27]: < 0.06 µg/mL
- MIC [1, 28]: < 0.06 µg/mL
- MIC [1, 29]: 0.5 µg/mL (≈ 1.02 µM)
- MIC [1, 30]: 1 µg/mL (≈ 2.04 µM)
- MIC [1, 31]: 0.5 µg/mL (≈ 1.02 µM)
- MIC [1, 32]: 1 µg/mL (≈ 2.04 µM)
- MIC ([2]; culture 3055 (control), table part marked b): 0.06 µg/mL (≈ 0.122 µM)
- MIC ([2]; culture 3055 (control), table part marked c): 0.06 µg/mL (≈ 0.122 µM)
- MIC [2, 5]: 1 µg/mL (≈ 2.04 µM)
- MIC [2, 6]: 8 µg/mL (≈ 16.3 µM)
- MIC [2, 7]: < 0.5 µg/mL
- MIC [2, 8]: 2 µg/mL (≈ 4.07 µM)
- MIC [2, 33]: < 0.5 µg/mL
- MIC [2, 34]: 2 µg/mL (≈ 4.07 µM)
- MIC [2, 35]: < 0.5 µg/mL
- MIC [2, 36]: 2 µg/mL (≈ 4.07 µM)
- MIC [2, 13]: 2 µg/mL (≈ 4.07 µM)
- MIC [2, 14]: 4 µg/mL (≈ 8.14 µM)
- MIC [2, 15]: < 0.5 µg/mL
- MIC [2, 16]: 2 µg/mL (≈ 4.07 µM)
- MIC [2, 17]: 0.25 µg/mL (≈ 0.509 µM)
- MIC [2, 18]: 4 µg/mL (≈ 8.14 µM)
- MIC [2, 19]: 2 µg/mL (≈ 4.07 µM)
- MIC [2, 20]: 4 µg/mL (≈ 8.14 µM)
- MIC [2, 21]: 2 µg/mL (≈ 4.07 µM)
- MIC [2, 22]: 2 µg/mL (≈ 4.07 µM)
- MIC [2, 23]: 0.5 µg/mL (≈ 1.02 µM)
- MIC [2, 24]: < 0.5 µg/mL
- MIC [2, 25]: 0.5 µg/mL (≈ 1.02 µM)
- MIC [2, 26]: 2 µg/mL (≈ 4.07 µM)
- MIC ([2]; culture H232 (control), table part marked b): 0.12 µg/mL (≈ 0.244 µM)
- MIC ([2]; culture H232 (control), table part marked c): 0.25 µg/mL (≈ 0.509 µM)
- MIC [2, 37]: 0.5 µg/mL (≈ 1.02 µM)
- MIC [2, 38]: 2 µg/mL (≈ 4.07 µM)
- MIC [2, 31]: 0.5 µg/mL (≈ 1.02 µM)
- MIC [2, 32]: 2 µg/mL (≈ 4.07 µM)
- MIC ([2]; culture S, table part marked b): 0.5 µg/mL (≈ 1.02 µM)
- MIC ([2]; culture S, table part marked c): 2 µg/mL (≈ 4.07 µM)
Compound: CC(=O)OCC1=C(C(=O)O)N2C(=O)C(NC(=O)CSc3cc(Cl)ccc3Cl)C2SC1 (stereo not drawn) [Example 2, 7-(2,5-Dichlorophenylthioacetamido)-cephalosporanic acid]
- effectiveness in in vitro tests vs methicillin, cephalothin and cephaloridine ([1]; various cultures of methicillin-resistant Staphylococcus aureus): substantially more effective than methicillin, cephalothin, and cephaloridine
